For the first assay, the target named is T1, TF/FVIIa (Homo sapiens, UniProt P08709).
T1 construct: Coagulation factor VIIa initiates the extrinsic part of the coagulation cascade
T1 sequence (P08709 61-212): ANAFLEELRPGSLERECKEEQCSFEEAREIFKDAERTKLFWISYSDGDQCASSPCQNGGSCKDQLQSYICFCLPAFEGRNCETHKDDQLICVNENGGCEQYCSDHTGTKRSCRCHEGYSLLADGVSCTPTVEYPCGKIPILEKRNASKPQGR
T1 sequence (P08709 213-466): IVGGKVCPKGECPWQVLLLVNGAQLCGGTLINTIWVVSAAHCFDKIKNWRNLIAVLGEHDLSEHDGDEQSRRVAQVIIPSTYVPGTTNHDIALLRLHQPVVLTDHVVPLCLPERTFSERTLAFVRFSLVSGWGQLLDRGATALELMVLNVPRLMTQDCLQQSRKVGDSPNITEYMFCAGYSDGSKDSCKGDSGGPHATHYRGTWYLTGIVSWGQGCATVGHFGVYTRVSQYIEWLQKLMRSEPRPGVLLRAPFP
T1 sequence (P13726 33-295, further chain): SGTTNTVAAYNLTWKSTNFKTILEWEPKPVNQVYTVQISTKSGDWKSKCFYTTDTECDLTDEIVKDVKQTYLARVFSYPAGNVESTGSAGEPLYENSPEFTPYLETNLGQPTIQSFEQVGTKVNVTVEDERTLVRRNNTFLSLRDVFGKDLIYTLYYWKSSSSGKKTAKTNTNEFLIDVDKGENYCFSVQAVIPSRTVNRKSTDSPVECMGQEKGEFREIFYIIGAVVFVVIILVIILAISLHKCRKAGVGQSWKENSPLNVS
Nature of the assay: TF/FVIIa inhibition (TF/FVIIa-IC50).
Conditions: not given
Format: biochemical.
Sequence of FXa (P00742 235-488 limits assumed): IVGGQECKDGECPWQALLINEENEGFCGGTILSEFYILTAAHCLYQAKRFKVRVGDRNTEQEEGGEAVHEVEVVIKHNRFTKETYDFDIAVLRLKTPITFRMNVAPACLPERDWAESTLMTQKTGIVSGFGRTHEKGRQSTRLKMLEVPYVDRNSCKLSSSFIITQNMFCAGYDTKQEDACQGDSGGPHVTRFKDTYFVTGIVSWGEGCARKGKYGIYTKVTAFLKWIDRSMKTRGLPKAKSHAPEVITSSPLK
Sequence of FXa (P00742 41-179 partner limits assumed): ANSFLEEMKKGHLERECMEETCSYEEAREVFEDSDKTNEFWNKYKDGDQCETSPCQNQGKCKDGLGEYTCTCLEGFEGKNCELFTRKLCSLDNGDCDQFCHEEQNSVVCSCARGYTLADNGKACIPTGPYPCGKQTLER
Usually IC50 stands for the concentration that inhibits the measured activity by half. The compound `C#Cc1ccc(NC(=O)N2C[C@H](OC)C[C@@H]2C(=O)Nc2ccc(-n3ccccc3=O)cc2)cc1` [Compound A1, 1-[(4-ethynylphenyl)]-2-{[4-(2-oxo-2H-pyridin-1-yl)phenyl]}-(2R,4R)-4-methoxypyrrolidine-1,2-dicarboxamide] came in with a concentration for half-maximal inhibition (IC50) of 1.9 nM.
For the compound `C#Cc1ccc(NC(=O)N2C[C@H](OC)C[C@@H]2C(=O)Nc2ccc(N3CCOCC3=O)cc2)cc1` [Compound A2, 1-[(4-ethynylphenyl)]-2-{[4-(3-oxomorpholin-4-yl)phenyl]}-(2R,4R)-4-methoxypyrrolidine-1,2-dicarboxamide], the IC50 is 3.2 nM.

A further assay addresses FXa (Homo sapiens, UniProt P00742). Nature of the assay: Factor Xa inhibition (FXa-IC50). Format: biochemical.
Conditions: not given
`C#Cc1ccc(NC(=O)N2C[C@H](OC)C[C@@H]2C(=O)Nc2ccc(-n3ccccc3=O)cc2)cc1` [Compound A1, 1-[(4-ethynylphenyl)]-2-{[4-(2-oxo-2H-pyridin-1-yl)phenyl]}-(2R,4R)-4-methoxypyrrolidine-1,2-dicarboxamide]: the IC50 is 1.3 nM.
`C#Cc1ccc(NC(=O)N2C[C@H](OC)C[C@@H]2C(=O)Nc2ccc(N3CCOCC3=O)cc2)cc1` [Compound A2, 1-[(4-ethynylphenyl)]-2-{[4-(3-oxomorpholin-4-yl)phenyl]}-(2R,4R)-4-methoxypyrrolidine-1,2-dicarboxamide]: the IC50 was determined as 3.1 nM.

The same assay, now with this note: read-out: FXa-IC50.
As to `C#Cc1ccc(NC(=O)N2CC(OCC)CC2C(=O)Nc2ccc(N3CCCCC3=O)cc2)cc1` [Compound A4-1, 1-[(4-ethynylphenyl)]-2-{[4-(2-oxopiperidin-1-yl)phenyl]}-(2R,4R)-4-ethoxypyrrolidine-1,2-dicarboxamide], the IC50 was found to be 3 nM.
The same measure, in the same setting: under `C#Cc1ccc(NC(=O)N2CC(OCC)CC2C(=O)Nc2ccc(-n3ccccc3=O)c(F)c2)cc1` [Compound A4-2, 1-[(4-ethynylphenyl)]-2-{[3-fluoro-4-(2-oxo-2H-pyridin-1-yl)phenyl]}-(2R,4R)-4-ethoxypyrrolidine-1,2-dicarboxamide] stands 1.9 nM; under `C#Cc1ccc(NC(=O)N2CC(O)CC2C(=O)Nc2ccc3c(c2)CCN3C(C)=O)cc1` [Compound A4-3, 1-[(4-ethynylphenyl)]-2-{[1-acetyl-2,3-dihydro-1H-indol-5-yl]}-(2R,4R)-4-hydroxypyrrolidine-1,2-dicarboxamide], 2600 nM.
For `C#Cc1ccc(NC(=O)N2CC(OC)CC2C(=O)Nc2ccc(-n3ccccc3=O)c(OC)c2)cc1` [Compound A4-4, 1-[(4-ethynylphenyl)]-2-{[3-methoxy-4-(2-oxo-2H-pyridin-1-yl)phenyl]}-(2R,4R)-4-methoxypyrrolidine-1,2-dicarboxamide], the IC50 turned out to be 2.8 nM.
For the compound `C#Cc1ccc(NC(=O)N2CC(OCC=C)CC2C(=O)Nc2ccc(N3CCOCC3=O)cc2)cc1` [Compound A4-5, 1-[(4-ethynylphenyl)]-2-{[4-(3-oxomorpholin-4-yl)phenyl]}-(2R,4R)-4-allyloxypyrrolidine-1,2-dicarboxamide], the IC50 was 3.1 nM.
Turning to `C#CCO[C@@H]1C[C@H](C(=O)Nc2ccc(N3CCOCC3=O)cc2)N(C(=O)Nc2ccc(C#C)cc2)C1` [Compound A4-6, 1-[(4-ethynylphenyl)]-2-{[4-(3-oxomorpholin-4-yl)phenyl]}-(2R,4R)-4-propargyloxypyrrolidine-1,2-dicarboxamide], the half-maximal inhibitory concentration (IC50) came out at 1.3 nM.
`C#Cc1ccc(NC(=O)N2CC(OCC(O)CO)CC2C(=O)Nc2ccc(N3CCOCC3=O)cc2)cc1` [Compound A4-7, 1-[(4-ethynylphenyl)]-2-{[4-(3-oxomorpholin-4-yl)phenyl]}-(2R,4R)-4-(2,3-dihydroxypropoxy)pyrrolidine-1,2-dicarboxamide]: the concentration for half-maximal inhibition (IC50) was 3.1 nM.
With `C#Cc1ccc(NC(=O)N2CC(OC)CC2C(=O)Nc2ccc(N3CC(O)CC3C(=O)OC)cc2)cc1` [Compound A4-8, 1-[(4-ethynylphenyl)]-2-{[4-(2-methoxycarbonyl-4-hydroxypyrrolidin-1-yl)phenyl]}-(2R,4R)-4-methoxypyrrolidine-1,2-dicarboxamide], the IC50 was determined as 1100 nM.
`C#Cc1ccc(NC(=O)N2C[C@H](OCCOC)C[C@@H]2C(=O)Nc2ccc(N3CCOCC3=O)cc2)cc1` [Compound A4-9, 1-[(4-ethynylphenyl)]-2-{[4-(3-oxomorpholin-4-yl)phenyl]}-(2R,4R)-4-(methoxyethoxy)pyrrolidine-1,2-dicarboxamide]: the half-maximal inhibitory concentration (IC50) was 3.3 nM.
As to `C#Cc1ccc(NC(=O)N2C[C@H](OCC(=O)OC)C[C@@H]2C(=O)Nc2ccc(N3CCOCC3=O)cc2)cc1` [Compound A4-10, 1-[(4-ethynylphenyl)]-2-{[4-(3-oxomorpholin-4-yl)phenyl]}-(2R,4R)-4-(methoxycarbonylmethoxy)pyrrolidine-1,2-dicarboxamide], the IC50 was found to be 4.2 nM.
With `C#Cc1ccc(NC(=O)N2C[C@H](OCC(=O)O)C[C@@H]2C(=O)Nc2ccc(N3CCOCC3=O)cc2)cc1` [Compound A4-11, 1-[(4-ethynylphenyl)]-2-{[4-(3-oxomorpholin-4-yl)phenyl]}-(2R,4R)-4-(carboxymethoxy)pyrrolidine-1,2-dicarboxamide], the IC50 turned out to be 4.8 nM.
As to `C#Cc1ccc(NC(=O)N2C[C@H](OC)C[C@@H]2C(=O)Nc2ccc(-n3nc(C)ccc3=O)cc2)cc1` [Compound A4-12, 1-[(4-ethynylphenyl)]-2-{[4-(6-methyl-3-oxo-2H-pyridazin-2-yl)phenyl]}-(2R,4R)-4-methoxypyrrolidine-1,2-dicarboxamide], the IC50 worked out at 2100 nM.

The values above are taken from patent US7557222B2, “1-[(4-Ethynylphenyl)]-2-[(phenyl)]-pyrrolidine-1,2-dicarboxamide derivatives as inhibitors of coagulation factors Xa and VIIa for the treatment of thrombosis” (priority 2003, dated 2009).
